We go through 15 compounds from ChEMBL document CHEMBL1926654, “Design and synthesis of novel β-diketo derivatives as HIV-1 integrase inhibitors” (Bioorg Med Chem, 2012).

For orientation: IC50 means the concentration at which inhibition is half-maximal. The EC50 is the concentration at which the effect is half-maximal. By CC50 is commonly meant the concentration at which the toxic effect on the cells reaches its halfway point. Higher therefore signals lower toxicity to the cells.

Where only a bound is given, the exact number is not on record here.

In data set [1] the target is Human immunodeficiency virus type 1 integrase (Human immunodeficiency virus 1, UniProt Q7ZJM1). The data set can be described thus: Inhibition of Human immunodeficiency virus 1 integrase-mediated strand transfer activity after 1 hr.
Data set [2] has as its system Human immunodeficiency virus 1. The data set can be described thus: Antiviral activity against Human immunodeficiency virus 1 infected in human TZM-bl cells assessed as inhibition of viral replication after 48 hrs by inverted microscopic analysis. The class given is functional, organism-based. As to conditions: Human immunodeficiency virus 1, TZM-bl.
Data set [3] can be described thus: Cytotoxicity against human TZM-bl cells after 48 hrs by MTT assay. The class given is cell-based. (In general: Tetrazolium dyes change colour on reduction, which living cells bring about.)
Data set [4] is described as follows: Therapeutic index, ratio of CC50 for human TZM-bl cells to EC50 for Human immunodeficiency virus 1. As to conditions: read-out: Ratio CC50/EC50. It is filed as cell-based.

Chain of Human immunodeficiency virus type 1 integrase (Q7ZJM1 whole entry): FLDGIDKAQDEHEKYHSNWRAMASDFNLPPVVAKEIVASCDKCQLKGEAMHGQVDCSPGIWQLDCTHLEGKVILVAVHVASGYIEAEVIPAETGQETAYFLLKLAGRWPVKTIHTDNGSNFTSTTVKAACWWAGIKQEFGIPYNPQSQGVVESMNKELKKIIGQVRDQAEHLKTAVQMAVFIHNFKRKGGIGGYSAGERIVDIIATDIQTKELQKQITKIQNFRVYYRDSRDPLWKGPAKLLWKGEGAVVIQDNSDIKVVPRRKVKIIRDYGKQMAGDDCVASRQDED

For the compound `Cc1c(C(=O)/C=C(\O)c2ccccc2)nnn1Cc1ccc(F)cc1`, the IC50 in data set [1] is over 59 µM.
Same read-out and setting: the result for `COc1ccc(/C(O)=C/C(=O)c2nnn(Cc3ccc(F)cc3)c2C)cc1` reads over 54 µM; that for `COc1ccc(/C(O)=C/C(=O)c2nnn(Cc3ccc(F)cc3)c2C)cc1OC`, over 50 µM; that for `COc1cc(/C(O)=C/C(=O)c2nnn(Cc3ccc(F)cc3)c2C)cc(OC)c1OC`, over 47 µM.
`Cc1c(C(=O)/C=C(\O)c2ccccc2)nnn1Cc1cccc(F)c1` yielded an IC50 in data set [1] of over 59 µM.
On to `COc1ccc(/C(O)=C/C(=O)c2nnn(Cc3cccc(F)c3)c2C)cc1`, for which the IC50 in data set [1] was over 54 µM.
In turn, `COc1ccc(/C(O)=C/C(=O)c2nnn(Cc3cccc(F)c3)c2C)cc1OC` gave an IC50 in data set [1] of over 50 µM.
For `COc1cc(/C(O)=C/C(=O)c2nnn(Cc3cccc(F)c3)c2C)cc(OC)c1OC`, the IC50 in data set [1] was over 47 µM.
On the same count and under the same terms, the result for `Cc1c(C(=O)/C=C(\O)c2ccc(O)cc2)nnn1Cc1ccc(F)cc1` reads over 56 µM; that for `Cc1c(C(=O)/C=C(\O)c2ccc(O)c(O)c2)nnn1Cc1ccc(F)cc1`, 40 µM.
Consider `Cc1c(C(=O)/C=C(\O)c2cc(O)c(O)c(O)c2)nnn1Cc1ccc(F)cc1`, for which the half-maximal effective concentration (EC50) in data set [2] turned out to be 8.92 µM. Also, in data set [1], half-maximal inhibition (IC50) required 2.6 µM. In data set [3], it took 33.4 µM to reach half-maximal cytotoxicity (CC50 at 48 h). The selectivity ratio in data set [4] was 3.7.
In data set [1], `Cc1c(C(=O)/C=C(\O)c2ccc(O)cc2)nnn1Cc1cccc(F)c1` came in with an IC50 of over 56 µM.
Consider `Cc1c(C(=O)/C=C(\O)c2ccc(O)c(O)c2)nnn1Cc1cccc(F)c1`, for which the IC50 in data set [1] was found to be 32 µM.
`Cc1c(C(=O)/C=C(\O)c2cc(O)c(O)c(O)c2)nnn1Cc1cccc(F)c1`: in data set [2], the EC50 is 7.32 µM. This compound showed an IC50 in data set [1] of 0.78 µM. In data set [3], it took 36.6 µM to reach half-maximal cytotoxicity (CC50 at 48 h). Moreover, the selectivity ratio in data set [4] was found to be 5.
As to `Cc1nnc(C(=O)NC(C)(C)c2nc(C(=O)NCc3ccc(F)cc3)c(O)c(=O)n2C)o1`, the EC50 in data set [2] worked out at 0.025 µM. In data set [3], this compound came in with a CC50 at 48 h of over 30 µM.
